Paper PMC5431883, “Enhancing Specific Disruption of Intracellular Protein Complexes by Hydrocarbon Stapled Peptides Using Lipid Based Delivery” (Scientific Reports, 2017)
Positions of bridges follow the written chain, without caps; N, C: chain ends. Non-standard residues stand in square brackets, D forms with d. Residues, ends and D or L forms follow the SMILES beside them. *: point of attachment. Trp(6-Cl) = N[C@@H](Cc1c[nH]c2cc(Cl)ccc12)C(=O)O; Biotin = O=C1N[C@H]2[C@H](CS[C@H]2CCCCC(=O)*)N1; R8 = C=CCCCCCC[C@@](C)(N)C(=O)O; Cba = N[C@@H](CC1CCC1)C(=O)O; S5 = C=CCCC[C@](C)(N)C(=O)O; Ahx = NCCCCCC(=O)O

Target: T1, Mdm2 (1-125) (Homo sapiens, UniProt Q00987)
T1 construct: Purified MDM2 (1-125) protein was titrated against 50 nM carboxyfluorescein (FAM)-labeled; GST (N, cleaved yes); made in house; host or cells: E. coli BL21 DE3 (pGEX-6P-1)
Assay: Mdm2 competitive fluorescence anisotropy assay (FAM-labeled 12/1 peptide displacement); also: 250 nM MDM2
Format: binding
Details: read-out: Kd (apparent dissociation constant, competitive fluorescence anisotropy)
Method: analyzed with SDS page gel and concentrated using a Centricon (3.5 kDa MWCO) concentrator, Millipore. Mdm2 protein samples were then dialyzed into a buffer solution containing 20mM Bis-Tris, pH 6.5, 0.05M NaCl with 1mM DTT and loaded onto a monoS column pre-equilibrated in buffer A (20mM Bis-Tris, pH 6.5, 1mM DTT). The column was then washed in 6 column volumes of buffer A and bound protein was eluted with a linear gradient of 1M NaCL over 25 column volumes. Protein fractions were analyzed with SDS page gel and concentrated using a Centricon (3.5 kDa MWCO) concentrator, Millipore.
Protein concentration was determined using A280 using an extinction coefficients […]
Mdm2 Competitive Fluorescence Anisotropy Assay and Kd Determination […]
Dissociation constants for titration of MDM2 against […]
equation shown below:25,26
[P] is the protein concentration (MDM2), [L] is the labeled peptide concentration, r is the anisotropy measured, r0 is the anisotropy of the free peptide, rb is the anisotropy of the MDM2– FAM-labeled peptide complex, Kd is the dissociation constant, [L]t is the total FAM labeled
(1 picture or pasted object on this page, not shown here) […]
peptide concentration, and [P]t is the total MDM2 concentration. […]
respective competing ligands in subsequent competition assays.
Apparent Kd values were determined for a variety of molecules via competitive fluorescence anisotropy experiments. Titrations were carried out with the concentration of MDM2 held constant […]
The competing molecules were then titrated against the complex of the FAM-labeled peptide and protein. Apparent Kd values were determined by fitting the experimental data to the equations shown below:26,27 […]
[L]st and [L]t denote labeled ligand and total unlabeled ligand input concentrations, respectively.
Kd2 is the dissociation constant of the interaction between the unlabeled ligand and the protein. In […]
all competitive types of experiments, it is assumed that [P]t > [L]st, otherwise considerable amounts of free labeled ligand would always be present and would interfere with measurements. Kd1 is the […]
experimentally determined as described in the previous paragraph. The FAM-labeled peptide was dissolved in dimethyl sulfoxide (DMSO) at 1 mM and diluted into experimental buffer. Readings were carried out with an Envision Multilabel Reader (PerkinElmer). Experiments were carried out […]
Tween 20 buffer. All titrations were carried out in triplicate. Curve-fitting was carried out using […]
Negative control titrations of the ligands under investigation were also carried out with the fluorescently labeled peptide (in the absence of MDM2) to ensure no interactions were occurring between the ligands and FAM-labeled peptide. […]
which would otherwise indicate an unintended interaction between the ligand and the FAM-labeled peptide to be displaced from the MDM2 binding site. […]

T1 sequence (Q00987 1-125): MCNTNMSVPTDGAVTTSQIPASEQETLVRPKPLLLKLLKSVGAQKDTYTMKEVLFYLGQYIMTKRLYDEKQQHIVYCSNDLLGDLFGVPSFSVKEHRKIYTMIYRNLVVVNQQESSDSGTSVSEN

Row | Structure (SMILES) | Kd
1 | CC(=O)N[C@H](C(=O)N[C@@H](CO)C(=O)N[C@@H](Cc1ccccc1)C(=O)N[C@]1(C)CCCCCCC=CCCC[C@@](C)(C(=O)N[C@@H](CCC(=O)O)C(=O)N[C@@H](CC(N)=O)C(=O)N[C@@H](Cc2ccc(O)cc2)C(N)=O)NC(=O)[C@H](CC(C)C)NC(=O)[C@H](CC(C)C)NC(=O)[C@H](C)NC(=O)[C@H](Cc2c[nH]c3ccccc23)NC(=O)[C@H](Cc2ccc(O)cc2)NC(=O)[C@H](CCC(=O)O)NC1=O)[C@@H](C)O [VIP-66] | 23.1 ± 1.5 nM
2 | CC(=O)N[C@@H](CCCNC(=N)N)C(=O)NCCCCCC(=O)N[C@H](C(=O)N[C@@H](CO)C(=O)N[C@@H](Cc1ccccc1)C(=O)N[C@]1(C)CCCCCCC=CCCC[C@@](C)(C(=O)N[C@@H](CCC(=O)O)C(=O)N[C@@H](CC(N)=O)C(=O)N[C@@H](Cc2ccccc2)C(N)=O)NC(=O)[C@H](CC(C)C)NC(=O)[C@H](CC(C)C)NC(=O)[C@H](C)NC(=O)[C@H](Cc2c[nH]c3ccccc23)NC(=O)[C@H](Cc2ccc(O)cc2)NC(=O)[C@H](CCC(=O)O)NC1=O)[C@@H](C)O [VIP-118] | 39.5 ± 3.9 nM
3 | CC(C)C[C@@H]1NC(=O)[C@H](C)NC(=O)[C@H](Cc2c[nH]c3ccccc23)NC(=O)[C@H](Cc2ccc(O)cc2)NC(=O)[C@H](CCC(=O)O)NC(=O)[C@](C)(NC(=O)[C@H](Cc2ccccc2)NC(=O)[C@H](CO)NC(=O)[C@@H](NC(=O)CNC(=O)[C@H](CO)NC(=O)CNC(=O)[C@H](CO)NC(=O)CCCC[C@@H]2SC[C@@H]3NC(=O)N[C@@H]32)[C@@H](C)O)CCCCCCC=CCCC[C@@](C)(C(N)=O)NC(=O)[C@H](CC(C)C)NC1=O [VIP-150] | 54.2 ± 5.9 nM
4 | CC(=O)N[C@@H](CCCNC(=N)N)C(=O)N[C@@H](CCCNC(=N)N)C(=O)N[C@@H](CCCNC(=N)N)C(=O)NCCCCCC(=O)N[C@H](C(=O)N[C@@H](CO)C(=O)N[C@@H](Cc1ccccc1)C(=O)N[C@]1(C)CCCCCCC=CCCC[C@@](C)(C(N)=O)NC(=O)[C@H](CC(C)C)NC(=O)[C@H](CC(C)C)NC(=O)[C@H](C)NC(=O)[C@H](Cc2c[nH]c3ccccc23)NC(=O)[C@H](Cc2ccc(O)cc2)NC(=O)[C@H](CCC(=O)O)NC1=O)[C@@H](C)O [VIP-78] | 78.8 ± 8.2 nM
5 | CC(=O)N[C@@H](CCCNC(=N)N)C(=O)N[C@@H](CCCNC(=N)N)C(=O)N[C@@H](CCCNC(=N)N)C(=O)NCCCCCC(=O)N[C@H](C(=O)N[C@@H](CO)C(=O)N[C@@H](CC(C)C)C(=O)N[C@]1(C)CCCCCCC=CCCC[C@@](C)(C(=O)N[C@@H](CCC(=O)O)C(=O)N[C@@H](CC(N)=O)C(=O)N[C@@H](Cc2ccccc2)C(N)=O)NC(=O)[C@H](Cc2c[nH]c3ccccc23)NC(=O)[C@H](CC(C)C)NC(=O)[C@H](C)NC(=O)[C@H](Cc2ccccc2)NC(=O)[C@H](Cc2ccc(O)cc2)NC(=O)[C@H](CCC(=O)O)NC1=O)[C@@H](C)O [VIP-128 SCRAM] (Ac-RRR[Ahx]TSL[R8]EYFALW[S5]ENF-NH2; staple 8-15) | > 10000 nM
6 | CC(C)C[C@@H]1NC(=O)[C@H](C)NC(=O)[C@H](Cc2c[nH]c3ccccc23)NC(=O)[C@H](Cc2ccc(O)cc2)NC(=O)[C@H](CCC(=O)O)NC(=O)[C@](C)(NC(=O)[C@H](Cc2ccccc2)NC(=O)[C@H](CO)NC(=O)[C@@H](NC(=O)CCCCCNC(=O)CCCC[C@@H]2SC[C@@H]3NC(=O)N[C@@H]32)[C@@H](C)O)CCCCCCC=CCCC[C@@](C)(C(=O)N[C@@H](CCC(=O)O)C(=O)N[C@@H](CC(N)=O)C(=O)N[C@@H](Cc2ccc(O)cc2)C(N)=O)NC(=O)[C@H](CC(C)C)NC1=O [VIP-87] | 46.2 ± 3.3 nM
7 | CC(C)C[C@@H]1NC(=O)[C@H](C)NC(=O)[C@H](Cc2c[nH]c3ccccc23)NC(=O)[C@H](Cc2ccc(O)cc2)NC(=O)[C@H](CCC(=O)O)NC(=O)[C@](C)(NC(=O)[C@H](Cc2ccccc2)NC(=O)[C@H](CO)NC(=O)[C@@H](NC(=O)CCCCCNC(=O)CCCC[C@@H]2SC[C@@H]3NC(=O)N[C@@H]32)[C@@H](C)O)CCCCCCC=CCCC[C@@](C)(C(N)=O)NC(=O)[C@H](CC2CCC2)NC1=O [VIP-68] ({Biotin-Ahx}-TSF[R8]EYWAL[Cba][S5]-NH2; staple 4-11) | 41.6 ± 1.7 nM
8 | CC(=O)N[C@@H](CCCCN)C(=O)N[C@@H](CCCCN)C(=O)NCCCCCC(=O)N[C@H](C(=O)N[C@@H](CO)C(=O)N[C@@H](Cc1ccccc1)C(=O)N[C@]1(C)CCCCCCC=CCCC[C@@](C)(C(=O)N[C@@H](CCC(=O)O)C(=O)N[C@@H](CC(N)=O)C(=O)N[C@@H](Cc2ccc(O)cc2)C(N)=O)NC(=O)[C@H](CC(C)C)NC(=O)[C@H](CC(C)C)NC(=O)[C@H](C)NC(=O)[C@H](Cc2c[nH]c3ccccc23)NC(=O)[C@H](Cc2ccc(O)cc2)NC(=O)[C@H](CCC(=O)O)NC1=O)[C@@H](C)O [VIP-86] (Ac-KK[Ahx]TSF[R8]EYWALL[S5]ENY-NH2; staple 7-14) | 23.5 ± 1.4 nM

The next compounds have a lower Kd than those just listed; values first:

Row | Kd | Structure (SMILES)
9 | 9.1 ± 1 nM | CC(=O)N[C@@H](CCCCN)C(=O)N[C@@H](CC(C)C)C(=O)N[C@@H](C)C(=O)N[C@@H](CCCCN)C(=O)NCCCCCC(=O)N[C@H](C(=O)N[C@@H](CO)C(=O)N[C@@H](Cc1ccccc1)C(=O)N[C@]1(C)CCCCCCC=CCCC[C@@](C)(C(=O)N[C@@H](CCC(=O)O)C(=O)N[C@@H](CC(N)=O)C(=O)N[C@@H](Cc2ccccc2)C(N)=O)NC(=O)[C@H](CC(C)C)NC(=O)[C@H](CC(C)C)NC(=O)[C@H](C)NC(=O)[C@H](Cc2c[nH]c3ccccc23)NC(=O)[C@H](Cc2ccc(O)cc2)NC(=O)[C@H](CCC(=O)O)NC1=O)[C@@H](C)O [VIP-129] (Ac-KLAK[Ahx]TSF[R8]EYWALL[S5]ENF-NH2; staple 9-16)
10 | 10 ± 1 nM | CC(=O)N[C@H](CCCCN)C(=O)N[C@H](CCCCN)C(=O)NCCCCCC(=O)N[C@H](C(=O)N[C@@H](CO)C(=O)N[C@@H](Cc1ccccc1)C(=O)N[C@]1(C)CCCCCCC=CCCC[C@@](C)(C(=O)N[C@@H](CCC(=O)O)C(=O)N[C@@H](CC(N)=O)C(=O)N[C@@H](Cc2ccccc2)C(N)=O)NC(=O)[C@H](CC(C)C)NC(=O)[C@H](CC(C)C)NC(=O)[C@H](C)NC(=O)[C@H](Cc2c[nH]c3ccccc23)NC(=O)[C@H](Cc2ccc(O)cc2)NC(=O)[C@H](CCC(=O)O)NC1=O)[C@@H](C)O [VIP-133] (Ac-[dK][dK][Ahx]TSF[R8]EYWALL[S5]ENF-NH2; staple 7-14)
11 | 14 ± 1.1 nM | CC(=O)N[C@H](C(=O)N[C@@H](CO)C(=O)N[C@@H](Cc1ccccc1)C(=O)N[C@]1(C)CCCCCCC=CCCC[C@@](C)(C(=O)N[C@@H](CCC(=O)O)C(N)=O)NC(=O)[C@H](CC2CCC2)NC(=O)[C@H](CC(C)C)NC(=O)[C@H](C)NC(=O)[C@H](Cc2c[nH]c3ccccc23)NC(=O)[C@H](Cc2ccc(O)cc2)NC(=O)[C@H](CCC(=O)O)NC1=O)[C@@H](C)O [VIP-71] (Ac-TSF[R8]EYWAL[Cba][S5]E-NH2; staple 4-11)
12 | 11.6 ± 1.2 nM | CC(=O)N[C@@H](CCCCN)C(=O)N[C@@H](CCCCN)C(=O)N[C@@H](CCCCN)C(=O)NCCCCCC(=O)N[C@H](C(=O)N[C@@H](CO)C(=O)N[C@@H](Cc1ccccc1)C(=O)N[C@]1(C)CCCCCCC=CCCC[C@@](C)(C(=O)N[C@@H](CCC(=O)O)C(=O)N[C@@H](CC(N)=O)C(=O)N[C@@H](Cc2ccccc2)C(N)=O)NC(=O)[C@H](CC(C)C)NC(=O)[C@H](CC(C)C)NC(=O)[C@H](C)NC(=O)[C@H](Cc2c[nH]c3ccccc23)NC(=O)[C@H](Cc2ccc(O)cc2)NC(=O)[C@H](CCC(=O)O)NC1=O)[C@@H](C)O [VIP-115] (Ac-KKK[Ahx]TSF[R8]EYWALL[S5]ENF-NH2; staple 8-15)
13 | < 1 nM | CC(=O)N[C@H](C(=O)N[C@@H](CO)C(=O)N[C@@H](Cc1ccccc1)C(=O)N[C@]1(C)CCCCCCC=CCCC[C@@](C)(C(=O)N[C@@H](CCC(=O)O)C(N)=O)NC(=O)[C@H](CC2CCC2)NC(=O)[C@H](CC(C)C)NC(=O)[C@H](C)NC(=O)[C@H](Cc2c[nH]c3cc(Cl)ccc23)NC(=O)[C@H](Cc2ccc(O)cc2)NC(=O)[C@H](CCC(=O)O)NC1=O)[C@@H](C)O [VIP-138] (Ac-TSF[R8]EY[Trp(6-Cl)]AL[Cba][S5]E-NH2; staple 4-11)
14 | 2.7 ± 0.4 nM | CC(=O)N[C@@H](CCCCN)C(=O)N[C@@H](CCCCN)C(=O)NCCCCCC(=O)N[C@H](C(=O)N[C@@H](CO)C(=O)N[C@@H](Cc1ccccc1)C(=O)N[C@]1(C)CCCCCCC=CCCC[C@@](C)(C(=O)N[C@@H](CCC(=O)O)C(=O)N[C@@H](CC(N)=O)C(=O)N[C@@H](Cc2ccccc2)C(N)=O)NC(=O)[C@H](CC2CCC2)NC(=O)[C@H](CC(C)C)NC(=O)[C@H](C)NC(=O)[C@H](Cc2c[nH]c3ccccc23)NC(=O)[C@H](Cc2ccc(O)cc2)NC(=O)[C@H](CCC(=O)O)NC1=O)[C@@H](C)O [VIP-124] (Ac-KK[Ahx]TSF[R8]EYWAL[Cba][S5]ENF-NH2; staple 7-14)
